Measurements reported in ChEMBL document CHEMBL3792365, “Dioxol and dihydrodioxin analogs of 2- and 3-phenylacetonitriles as potent anti-cancer agents with nanomolar activity against a variety of human cancer cells” (2016).

What was measured:
Assay type in all cases: functional
[1] = Growth inhibition of human SNB75 cells at 10 uM after 48 hrs by sulforhodamine B assay; details: SNB-75, 48 h, values are per cent of control
U-251 = assay: Growth inhibition of human U251 cells at 10 uM after 48 hrs by sulforhodamine B assay; details: U-251, 48 h, values are per cent of control
[2] = Growth inhibition of human LOXIMVI cells at 10 uM after 48 hrs by sulforhodamine B assay; details: LOX IMVI, values are per cent of control
M14 = assay: Growth inhibition of human M14 cells at 10 uM after 48 hrs by sulforhodamine B assay; details: M14, 48 h, values are per cent of control
MDA-MB-435 = assay: Growth inhibition of human MDA-MB-435 cells at 10 uM after 48 hrs by sulforhodamine B assay; details: MDA-MB-435, 48 h, values are per cent of control
SK-MEL-2 = assay: Growth inhibition of human SK-MEL-2 cells at 10 uM after 48 hrs by sulforhodamine B assay; details: SK-MEL-2, 48 h, values are per cent of control
SK-MEL-28 = assay: Growth inhibition of human SK-MEL-28 cells at 10 uM after 48 hrs by sulforhodamine B assay; details: SK-MEL-28, 48 h, values are per cent of control
SK-MEL-5 = assay: Growth inhibition of human SK-MEL-5 cells at 10 uM after 48 hrs by sulforhodamine B assay; details: SK-MEL-5, 48 h, values are per cent of control
[3] = Growth inhibition of human OVCAR4 cells at 10 uM after 48 hrs by sulforhodamine B assay; details: OVCAR-4, 48 h, values are per cent of control
[4] = Growth inhibition of human OVCAR5 cells at 10 uM after 48 hrs by sulforhodamine B assay; details: OVCAR-5, 48 h, values are per cent of control
[5] = Growth inhibition of human OVCAR8 cells at 10 uM after 48 hrs by sulforhodamine B assay; details: OVCAR-8, 48 h, values are per cent of control
[6] = Growth inhibition of human NCI-ADR-RES cells at 10 uM after 48 hrs by sulforhodamine B assay; details: values are per cent of control
[7] = Growth inhibition of human SKOV3 cells at 10 uM after 48 hrs by sulforhodamine B assay; details: SK-OV-3, 48 h, values are per cent of control
786-0 = assay: Growth inhibition of human 786-0 cells at 10 uM after 48 hrs by sulforhodamine B assay; details: 786-0, 48 h, values are per cent of control
A498 = assay: Growth inhibition of human A498 cells at 10 uM after 48 hrs by sulforhodamine B assay; details: A498, 48 h, values are per cent of control
ACHN = assay: Growth inhibition of human ACHN cells at 10 uM after 48 hrs by sulforhodamine B assay; details: values are per cent of control
[8] = Growth inhibition of human Caki1 cells at 10 uM after 48 hrs by sulforhodamine B assay; details: CAKI-1, 48 h, values are per cent of control
[9] = Growth inhibition of human RXF393 cells at 10 uM after 48 hrs by sulforhodamine B assay; details: RXF 393, 48 h, values are per cent of control
SN12C = assay: Growth inhibition of human SN12C cells at 10 uM after 48 hrs by sulforhodamine B assay; details: values are per cent of control
[10] = Growth inhibition of human TK10 cells at 10 uM after 48 hrs by sulforhodamine B assay; details: TK-10, 48 h, values are per cent of control
[11] = Growth inhibition of human UO31 cells at 10 uM after 48 hrs by sulforhodamine B assay; details: UO-31, 48 h, values are per cent of control
[12] = Growth inhibition of human DU145 cells at 10 uM after 48 hrs by sulforhodamine B assay; details: DU-145, 48 h, values are per cent of control
MDA-MB-231 = assay: Growth inhibition of human MDA-MB-231 cells at 10 uM after 48 hrs by sulforhodamine B assay; details: MDA-MB-231, 48 h, values are per cent of control
[13] = Growth inhibition of human BT549 cells at 10 uM after 48 hrs by sulforhodamine B assay; details: BT-549, 48 h, values are per cent of control
MDA-MB-468 = assay: Growth inhibition of human MDA-MB-468 cells at 10 uM after 48 hrs by sulforhodamine B assay; details: MDA-MB-468, 48 h, values are per cent of control
K562 = assay: Growth inhibition of human K562 cells at 10 uM after 48 hrs by sulforhodamine B assay; details: K562, 48 h, values are per cent of control
A549 = assay: Growth inhibition of human A549/ATCC cells at 10 uM after 48 hrs by sulforhodamine B assay; details: A549, 48 h, values are per cent of control
[14] = Growth inhibition of human HOP62 cells at 10 uM after 48 hrs by sulforhodamine B assay; details: HOP-62, 48 h, values are per cent of control
NCI-H226 = assay: Growth inhibition of human NCI-H226 cells at 10 uM after 48 hrs by sulforhodamine B assay; details: NCI-H226, 48 h, values are per cent of control
NCI-H322M = assay: Growth inhibition of human NCI-H322M cells at 10 uM after 48 hrs by sulforhodamine B assay; details: values are per cent of control
NCI-H460 = assay: Growth inhibition of human NCI-H460 cells at 10 uM after 48 hrs by sulforhodamine B assay; details: NCI-H460, 48 h, values are per cent of control
[15] = Growth inhibition of human COLO205 cells at 10 uM after 48 hrs by sulforhodamine B assay; details: COLO 205, 48 h, values are per cent of control
[16] = Growth inhibition of human HCT116 cells at 10 uM after 48 hrs by sulforhodamine B assay; details: HCT-116, 48 h, values are per cent of control
HT-29 = assay: Growth inhibition of human HT-29 cells at 10 uM after 48 hrs by sulforhodamine B assay; details: HT-29, 48 h, values are per cent of control
KM12 = assay: Growth inhibition of human KM12 cells at 10 uM after 48 hrs by sulforhodamine B assay; details: KM12, 48 h, values are per cent of control
[17] = Growth inhibition of human SW620 cells at 10 uM after 48 hrs by sulforhodamine B assay; details: SW-620, 48 h, values are per cent of control
[18] = Growth inhibition of human SF268 cells at 10 uM after 48 hrs by sulforhodamine B assay; details: SF-268, 48 h, values are per cent of control
[19] = Growth inhibition of human SF295 cells at 10 uM after 48 hrs by sulforhodamine B assay; details: SF-295, 48 h, values are per cent of control
[20] = Growth inhibition of human SF539 cells at 10 uM after 48 hrs by sulforhodamine B assay; details: SF-539, 48 h, values are per cent of control
[21] = Growth inhibition of human SNB19 cells at 10 uM after 48 hrs by sulforhodamine B assay; details: SNB-19, 48 h, values are per cent of control

N#C/C(=C\c1cc(Br)cc(Br)c1)c1ccc2c(c1)OCO2
growth, % of control at 10 µM [1]: 77.3%
growth, % of control at 10 µM (U-251): 99.9%
growth, % of control at 10 µM [2]: 97.1%
growth, % of control at 10 µM (M14): 92.8%
growth, % of control at 10 µM (MDA-MB-435): 98.7%
growth, % of control at 10 µM (SK-MEL-2): 88.7%
growth, % of control at 10 µM (SK-MEL-28): 98.9%
growth, % of control at 10 µM (SK-MEL-5): 95.4%
growth, % of control at 10 µM [3]: 81.3%
growth, % of control at 10 µM [4]: 100%
growth, % of control at 10 µM [5]: 108%
growth, % of control at 10 µM [6]: 94.9%
growth, % of control at 10 µM [7]: 94.4%
growth, % of control at 10 µM (786-0): 98.2%
growth, % of control at 10 µM (A498): 90.4%
growth, % of control at 10 µM (ACHN): 96.1%
growth, % of control at 10 µM [8]: 88.1%
growth, % of control at 10 µM [9]: 95.5%
growth, % of control at 10 µM (SN12C): 94.7%
growth, % of control at 10 µM [10]: 96.1%
growth, % of control at 10 µM [11]: 76.5%
growth, % of control at 10 µM [12]: 94.2%
growth, % of control at 10 µM (MDA-MB-231): 89.9%
growth, % of control at 10 µM [13]: 91.4%
growth, % of control at 10 µM (MDA-MB-468): 103%
growth, % of control at 10 µM (K562): 96.2%
growth, % of control at 10 µM (A549): 79.9%
growth, % of control at 10 µM [14]: 104%
growth, % of control at 10 µM (NCI-H226): 115%
growth, % of control at 10 µM (NCI-H322M): 91.4%
growth, % of control at 10 µM (NCI-H460): 99.4%
growth, % of control at 10 µM [15]: 106%
growth, % of control at 10 µM [16]: 82.1%
growth, % of control at 10 µM (HT-29): 91.1%
growth, % of control at 10 µM (KM12): 92.4%
growth, % of control at 10 µM [17]: 101%
growth, % of control at 10 µM [18]: 93.5%
growth, % of control at 10 µM [19]: 96.4%
growth, % of control at 10 µM [20]: 94.4%
growth, % of control at 10 µM [21]: 109%
